Test results: PMC12598559, “Absorption characteristics and in vivo behavior of astaxanthin isomers: insights from the administration of highly purified (all-E)-, (9Z)-, and (13Z)-astaxanthin in male mice” (RSC Advances, 2025)
Read-outs that look alike come from different tables or passages of the source. Marks after values point to notes of the source that are not given here.

How the values were obtained:
[1] = male, ICR, mouse; for F NCA (absolute oral bioavailability) / AUC0–∞ / C max / T max: in vivo, 100 mg/kg; for AUC0–∞ / C max / T max / in vivo isomerization in plasma: po
Procedure: (§1) All animal experiments were performed in the I Tech Lab. Co., Ltd (Gifu, Japan). The study protocol was approved by the Institutional Animal Care and Use Committee of the company (approval numbers: ITL-25-MO-385 for the oral administration test and ITL-25-MV-386 for the intravenous injection test). Slc:ICR (ICR) male mice aged 7–8 weeks, supplied by Japan SLC Inc. (Shizuoka, Japan), were used in this study. The body weight of the mice at the beginning of the experiments ranged from 42.8 to 52.3 g. The mice were maintained under stable laboratory conditions (temperature: 18–28 °C; humidity: 30–80%; 12 h light/dark cycle) and provided with drinking water and a standard laboratory diet (MF; Oriental Yeast Co., Ltd, Tokyo, Japan) throughout the acclimation and testing periods. After an 11-day acclimation period, single oral administration and intravenous injection tests were conducted. For the oral administration test, 15 mice were randomly assigned to four groups: control (placebo; soybean oil administered), (all-E)-astaxanthin administered (n = 4), (9Z)-astaxanthin administered (n = 4), and (13Z)-astaxanthin administered (n = 4). Each astaxanthin isomer was administered to mice at a dose of 100 mg per kg body weight. […] Blood samples were collected before and 3, 6, 9, 12, and 24 h after the administration of the test diets. Fecal samples were collected 6–24 h after administering astaxanthin. In the intravenous injection test, 15 mice were randomly assigned to four groups: control (placebo; solvent intravenously injected), (all-E)-astaxanthin intravenously injected (n = 4), (9Z)-astaxanthin intravenously injected (n = 4), and (13Z)-astaxanthin intravenously injected (n = 4). Each astaxanthin isomer was intravenously injected into mice at a dose of 10 mg per kg body weight.[24] Blood samples were collected before and 1, 3, 6, 9, and 12 h after injecting the test samples. After these tests, the mice were sacrificed by exsanguination under anesthesia (ketamine hydrochloride and xylazine hydrochloride), and the liver was collected. Plasma samples were prepared from heparin-treated blood by centrifugation. The collected plasma, liver, and fecal samples were immediately stored at −80 °C under dark condition until just before astaxanthin extraction.
(§2) Astaxanthin isomers in the plasma, liver, and fecal samples were extracted according to previous reports.[14,15] In brief, astaxanthin isomers in plasma were extracted using hexane containing 0.01% BHT. An equal volume of methanol was added to each plasma sample to precipitate the proteins prior to hexane extraction. The extraction was performed three times using a vortex mixer for 30 s. After separating the hexane and aqueous layers by centrifugation, the hexane layer was carefully collected and removed using an evaporator. The obtained solid was dissolved in a mixture of hexane and ethyl acetate (9 : 1), filtered through a 0.22 μm PTFE membrane filter, and analyzed using HPLC. Astaxanthin isomers in liver and fecal samples were extracted using acetone containing 0.01% BHT. The samples were ultrasonicated at 80 W and 38 kHz for 30 min in ice water (∼5 °C) to facilitate extraction. The extraction residue was separated from the extraction liquid using a 0.22 μm PTFE membrane filter. The filtrate containing astaxanthin isomers was concentrated to dryness using an evaporator. Finally, the residue was dissolved in a mixture of hexane and ethyl acetate (9 : 1), filtered through a 0.22 μm PTFE membrane filter, and analyzed using HPLC. To minimize the isomerization and degradation of astaxanthin during the extraction process, heat and light exposure were carefully controlled.

[2] = mouse, iv; for AUC0–∞ / C max: in vivo, 10 mg/kg
Procedure: as §1, §2

F NCA (absolute oral bioavailability) [1] | AUC0–∞ [1] | C max [1] | T max [1] | AUC0–∞ ([2]; male, ICR) | C max ([2]; male, ICR) | Compound | in vivo isomerization in plasma [1] | in vivo isomerization in plasma [2] | in vivo isomerization in plasma ([2]; male, ICR)
0.04 | 4330 ± 2070 ng·h/mL | 1010 ± 510 ng/mL | 4 h | 19400 ± 3300 ng·h/mL | 2030 ± 160 ng/mL | CC(C=CC=C(C)C=CC1=C(C)C(=O)C(O)CC1(C)C)=CC=CC=C(C)C=CC=C(C)C=CC1=C(C)C(=O)C(O)CC1(C)C (stereo not drawn) [(9Z)-Astaxanthin, (9Z)-astaxanthin] | isomerized into a variety of Z-isomers, including the all-E-, 13Z-, and 15Z-isomers, and two unidentified Z-isomers | markedly limited isomerization | –
0.18 | 82200 ± 57400 ng·h/mL | 7700 ± 5090 ng/mL | 6 h | 127100 ± 32400 ng·h/mL | 5460 ± 1340 ng/mL | CC(C=CC=C(C)C=CC1=C(C)C(=O)C(O)CC1(C)C)=CC=CC=C(C)C=CC=C(C)C=CC1=C(C)C(=O)C(O)CC1(C)C (stereo not drawn) [(13Z)-Astaxanthin, (13Z)-astaxanthin] | a minor portion of the 13Z-isomer isomerized to the all-E-isomer | the isomer composition remained relatively stable | –
0.12 | 1460 ± 1350 ng·h/mL | 10 ± 10 ng/mL | 3 (9) ^d h | 310 ± 200 ng·h/mL | 100 ± 70 ng/mL | CC(C=CC=C(C)C=CC1=C(C)C(=O)C(O)CC1(C)C)=CC=CC=C(C)C=CC=C(C)C=CC1=C(C)C(=O)C(O)CC1(C)C (stereo not drawn) [(all-E)-Astaxanthin, (all-E)-astaxanthin] | a small portion of (all-E)-astaxanthin was converted to the 13Z- and 15Z-isomers | – | the proportion of the 13Z-isomer gradually increased over time
